# Measured values from patent US20030092683A1, “Use of tetracyclines as neuro-protective agents and for the treatment of parkinson's disease and related disorders” (priority 2001, published 2003).
# Test system: TH-positive (dopaminergic) neurons in the SNpc
# Assay: MPTP-induced neuronal death in vivo, TH-positive neurons by immunohistochemistry
# Set-up: species or system C57BL/6 mice
# Details: for viable TH-positive neurons in the SNpc: MPTP 20 mg/kg x4 on day 3, analysed 7 days after last MPTP, MPTP without minocycline 37% of control
# Protocol: On day 3 mice were injected with MPTP (20 mg/kg×4). Seven days following the last injection of MPTP, the brains were analyzed by immun histochemistry to detect and quantify tyrosin hydroxylase (TH)-positive neurons.
smiles,measurement,setting,value
CN(C)c1ccc(O)c2c1C[C@H]1C[C@H]3[C@H](N(C)C)C(O)=C(C(N)=O)C(=O)[C@@]3(O)C(O)=C1C2=O [minocycline],viable TH-positive neurons in the SNpc,minocycline 90 mg/kg p.o. daily for nine days,56 % of control
same,"viable TH-positive neurons in the SNpc, treatment after MPTP","minocycline 120 mg/kg p.o. beginning 4 h after the last MPTP injection, MPTP without minocycline 36% of control, p<0.05",66 % of control
same,viable TH-positive neurons in the SNpc,minocycline 120 mg/kg p.o. daily for nine days,77 % of control
